In US12263156B2, “Use of small molecule inhibitors of the BfrB:Bfd interaction in biofilms” (priority 2020, dated 2025):
“And” between values parts separate entries of the source, which are not always exact repeats. Equal entries are not always repeated.

Key:
[1] = tested on: P. aeruginosa PAO1; assay: Half maximal inhibitory concentration (IC50) of planktonic growth, CFU/mL enumeration; type: cell-based, Pseudomonas aeruginosa; conditions: for IC50: Pseudomonas aeruginosa, PAO1
Procedure: Chemicals were purchased from Fisher Scientific (Waltham, MA) unless otherwise stated. P. aeruginosa PAO1 was obtained from the University of Washington Genome center.^80 The PAO1 strain expressing enhanced yellow fluorescent protein (EYFP) was prepared as described in Soldano, A.; Yao, H.; Chandler, J. R.; Rivera, M. (2020) Inhibiting Iron Mobilization from Bacterioferritin in Pseudomonas aeruginosa Impairs Biofilm Formation Irrespective of Environmental Iron Availability. ACS Infect. Dis. 6, 447-458. 10.1021/acsinfecdis.9b00398.^26 Clinical isolates of P. aeruginosa were purchased from JMI Laboratories (North Liberty, IA, USA). […] Starter cultures of P. aeruginosa PAO1 in 5 mL LB media were grown for 13 hours in 50 mL conical tubes at 37° C. and 220 rpm. For biofilm experiments, a EYFP-expressing P. aeruginosa strain was routinely grown in Pseudomonas Isolation (PI) media (20 g L^−1 peptone, 0.3 g L^−1 MgCl2·6H O, 10 g L^−1 K2SO4, 25 mg L^−1 irgasan, and 20 mL L^−1 glycerol, pH 7.0). Starter cultures were grown from a single colony at 37° C. and shaking at 220 rpm for 14 hours in 5 mL PI media supplemented with 10 μM Fe. Pellicle biofilms were cultured for 48 hours at 30° C. in PI media supplemented with 20 μM Fe. Surface-attached biofilms were cultured in AB minimal media^81 supplemented with trace metals [0.15 μM (NH4)2MoO4, 3 μM CuSO4, 2 μM Co(NO3)2, 9.4 μM Na2B4O7, and 7.6 μM ZnSO4], 3 mM glucose and 15 μM Fe. Iron supplementation was carried out by addition of a small volume of filter-sterilized 10 mM (NH4)2Fe(SO4)2 (pH˜2.0) solution. […]; IC50 values (Table 1 below) were determined as reported previously^25 with small modifications. In brief: precultures of P. aeruginosa PAO1 (5 mL) were grown in LB media for 13 hours at 37° C. and 220 rpm in 50 mL conical tubes (VWR International, PA). The cells were centrifuged for 5 min at 4,000 rpm and 4° C., washed two times and then diluted in buffer (100 mM KH2PO4 and 15 mM (NH4)2SO4 to an optical density at 600 nm (OD600) of 0.1. A small volume of compound stock solution (10 mM) was transferred to a microcentrifuge tube, initially diluted with DMSO to 20 μL, and then diluted to 1 mL with preculture cell suspension in defined media with OD600=0.0001, so the final DMSO concentration is 2%. The resultant cell suspension (200 μL) was transferred to a clear-bottom polystyrene 96-well plate (VWR International, PA) covered with a lid and incubated at 35° C. and 205 cpm for 24 h in a Synergy H1 microplate reader (Biotek Instruments Inc., Winooski, VT). The cell cultures were serially diluted and then plated on PI Agar (PIA; BD Biosciences, San Jose, CA) plates for enumeration of viable cells (CFU/mL). The % growth was calculated from the ratio CFU/mL(treated)/CFU/mL(untreated control). To calculate the IC50 values, the % growth was plotted as a function of compound concentration, expressed as log[compound] (μM), and fitted to the 4-parameter logistic model describing the sigmoid-shaped response pattern (equation 1),^83 where b is the slope factor, max is the upper asymptote (plateau), and min is the lower asymptote. Values are the average and standard deviation from three independent experiments.

[2] = target: BfrB (apo-BfrB) (Pseudomonas aeruginosa (strain ATCC 15692 / DSM 22644 / CIP 104116 / JCM 14847 / LMG 12228 / 1C / PRS 101 / PAO1), UniProt Q9HY79); assay: Fluorescence polarization measurement of dissociation constant (Kd); type: binding; conditions: for Kd: 100 mM potassium phosphate buffer pH 7.6, 1 mM TCEP, 0.5% DMSO, average ± SD
Procedure: Values were obtained in 100 mM potassium phosphate buffer (pH 7.6) containing 1 mM TCEP and 0.5% DMSO. The initial concentrations of KM-5-25 and KM-5-66 were 5 μM. The Kd values are the average and standard deviation from three independent measurements. […] The IC50 values are the average and the standard derivations from three independent experiments.
Prior to testing the effect that the 4-substituted isoindoline-1,3-dione derivatives might exert on P. aeruginosa cells, the strength of their interaction with BfrB was evaluated in vitro with a fluorescence polarization assay developed based on the intrinsic fluorescence of the isoindoline-1,3-dione moiety.

[3] = tested on: EYFP-expressing P. aeruginosa PAO1 pellicle biofilms; assay: Determination of viable cells (CFU/mL) in pellicle biofilms; conditions: for % cell survival, CFU/mL(after treatment)/CFU/mL(pre-treatment): 2-day old pellicles, 24 h
Procedure: (§1) Pellicle biofilms of EYFP-expressing P. aeruginosa PAO1 or clinical isolates were grown in PI media supplemented with 20 μM Fe. Starter cultures were diluted to OD600=0.001 in 4 mL media, placed in 35×10 mm petri dishes and incubated statically at 30° C. for 48 hours. The pellicles were transferred onto circular (1.5 cm diameter) glass coverslips by gently allowing the surface of a coverslip to contact a pellicle. The pellicle-adhered coverslip was washed in PBS and then deposited on top of 1.5 mL of AB challenge media contained in a well of a 12-well microplate, with the pellicle exposed to the media. […] The coverslip-adhered pellicles were exposed to challenge media at 30° C. for 24 hours, changing the challenge media every 12 hours by transferring the pellicle-adhered coverslip to a new plate containing pre-warmed challenge media.
Pellicle biofilms were grown as described above. Planktonic and loosely attached cells were washed (3 times) by immersing the coverslip-adhered pellicles (biofilm facing up) into a well of a 12-well plate containing 3 mL of PBS, and incubating (5 min) with gentle rocking. To remove the pellicle from the coverslip, break the extracellular matrix and release cells from the biofilm, the coverslip-adhered pellicle was placed in a 50 mL conical tube containing a 2 mL suspension of zirconia beads (0.1 mm diameter, BioSpec Products), 10 mL PBS, 0.2 μg/mL alginate lyase and 0.2 μg/mL DNAse. The resultant mixture was incubated at room temperature for 3 min, followed by vigorous vortexing for 4 min. After sedimentation of the zirconia beads, a 100 μL aliquot was used for serial dilution and plating on PIA plates for subsequent enumeration of viable cells (CFU/mL).
To assess the efficacy of antibiotics and compounds with an approach complementary to imaging with CLSM, dispersing biofilm cells for subsequent enumeration of viable cells (CFU/mL) was resorted to. […] The biofilms were then harvested, and the cells dispersed into sterile PBS by vortexing in the presence of zirconia beads, prior to plating the cell suspensions for subsequent enumeration of CFU/mL. […] A characteristic of cells in the VBNC state is their inability to develop into colonies on routine culture media, even though the cells remain viable for long periods of time.^58-59 Evidence that bacterial cells can enter the VBNC has been obtained by several distinct methods,^59 one of which is the utilization of bacteria engineered to constitutively express bioluminescent proteins, and using the bioluminescence as a reporter of metabolic activity.

[4] = Aqueous solubility; type: physicochemical; conditions: aqueous solution
[5] = tested on: P. aeruginosa; conditions: reported MIC; cited from earlier work
[6] = tested on: EYFP-expressing P. aeruginosa PAO1 pellicle biofilms; assay: Pellicle biofilm assay (CLSM imaging, COMSTAT biomass); type: cell-based, Pseudomonas aeruginosa; conditions: 24 h; for tolerance or susceptibility of pellicle biofilms (CLSM): 2-day old pellicles, ciprofloxacin, tobramycin 25× and 50× the MIC, colistin above 10× the MIC
Procedure: as §1
Excess fluorescent dye was washed with PBS, the coverslip was mounted on a glass slide using 5 μL of SlowFade (Invitrogen, Carlsbad, CA) and the edges sealed with fingernail polish. CLSM image stacks (z-step size of 0.3 μm) were acquired with the aid of a Leica TCS SP8 microscope, as described above. Quantitative analysis was performed by determination of pellicle biomass using COMSTAT^54 and the Otsu method of automatic thresholding.^85
To expand the observations made with flow cell biofilms into a second biofilm model, the susceptibility of biofilms grown at the air-liquid interface (pellicles) was also studied.^56-57 Pellicle biofilms (henceforth pellicles) are an attractive alternative platform to study biofilms because pellicles are amenable to imaging by CLSM and to harvesting, which can be desirable for additional biofilm analysis.^26 To determine the susceptibility of pellicles to antibiotics or inhibitors of the BfrB-Bfd complex, 2-day old pellicles of EYFP-expressing P. aeruginosa cells were cultured in PI media supplemented with 20 μM Fe. The pellicles were transferred onto glass coverslips by allowing the surface of the coverslip to contact a pellicle.

[7] = tested on: EYFP-expressing P. aeruginosa PAO1 biofilms; assay: Flow cell biofilm assay (CLSM imaging, COMSTAT biomass); type: cell-based, Pseudomonas aeruginosa; conditions: 3-day old flow cell biofilms, 24 h treatment at 25× the MIC
Procedure: ACS Infect. Dis. […] The experimental shear stress was 0.14-dyn/cm^2 (shear rate=14 s^−1, pressure=7.1 mbar, flow rate=0.4 mL/min) and the switch time was set to 540 s. […] During biofilm growth and challenge with antibacterial, the culture medium in the reservoirs was removed every 12 hours and replaced with fresh pre-warmed medium. […] The biofilms were imaged with the aid of a Leica TCS SP8 confocal microscope (Leica Microsystems, Germany) using a HC PL apo CS2 63×/1.4 oil objective. […] Image stacks were acquired with a z-step size of 0.3 μm at randomly chosen positions. The Leica Application Suite X (LAS-X) software was used for image stack processing.^54 Quantitative analysis of biofilm biomass was performed using the COMSTAT computer program^54 and the Otsu method of automatic thresholding.^85
The treated biofilms were counterstained with the cell impermeable fluorescent nucleic acid dye Sytox Red and then imaged with the aid of confocal laser scanning microscopy (CLSM).

[8] = planktonic growth, 24 h, 35° C, defined media, 2% DMSO, average ± SD of three experiments

In the case of `Nc1cccc2c1C(=O)NC2=O` [Analog 8], the “IC50 (μM)” value [1, 8] is reported as “Not active”.

`O=C1NC(=O)c2c(NCc3ccccc3O)cccc21` [Analog 11] showed an IC50 [1, 8] of 258 ± 23 µM.

In the case of `O=C1NC(=O)c2c(NCc3cccc(O)c3)cccc21` [Analog 12], the Kd [2] is reported as 21 ± 3 µM and the IC50 [1, 8] is reported as > 120 µM.

With `O=C1NC(=O)c2c(NCCCc3cccc(O)c3)cccc21` [Analog 16] the “relative compound activity (rank order)” value ([3]; pellicles treated 24 h with 50 μM of each analog) was “KM-5-66>KM-5-25>16>11”, the Kd [2] was 1.5 ± 0.25 µM and the IC50 [1, 8] was 121 ± 4 µM.

In the case of `O=C1NC(=O)c2c(NCCCc3cc(F)ccc3O)cccc21` [JAG-5-6], the Kd [2] is reported as 0.43 ± 0.07 µM, the “fold lowered Kd relative to KM-5-28” value ([2]; relative to KM-5-28) is reported as ~3 fold and the IC50 [1, 8] is reported as 54 ± 9 µM. The “fold decrease in IC50 relative to KM-5-28” value ([1]; relative to KM-5-28) was ~2 fold.

Compound `O=C1NC(=O)c2c(NCc3cc(F)ccc3O)cccc21` [JAG-5-7, 4-((5-Fluoro-2-hydroxybenzyl)amino)isoindoline-1,3-dione] has a Kd [2] of 7 ± 2 µM and an IC50 [1, 8] of 128 ± 26 µM.

`O=C1NC(=O)c2c(NCCCc3ccccc3O)cccc21` [KM-5-28] gave a Kd [2] of 1.4 ± 0.2 µM and an IC50 [1, 8] of 96 ± 1 µM.

In the case of `O=C1NC(=O)c2c(NCc3c(O)cccc3Cl)cccc21` [KM-5-29, 4-((6-Chloro-2-hydroxybenzyl)amino)isoindoline-1,3-dione], the Kd [2] is reported as 6 ± 0.5 µM and the “aqueous solubility (in words)” value [4] is reported as “poorly soluble in aqueous solution”.

For `O=C1NC(=O)c2c(NCc3cccc(Cl)c3O)cccc21` [KM-5-30, 4-((3-Chloro-2-hydroxybenzyl)amino)isoindoline-1,3-dione], the Kd [2] was 6 ± 1 µM, the IC50 [1, 8] was 156 ± 30 µM and the “fold larger IC50 relative to KM-5-25” value ([1]; relative to KM-5-25) was ~2.5 fold.

With `O=C1NC(=O)c2c(NCc3cc(O)cc(Cl)c3)cccc21` [KM-5-50, 4-((5-Chloro-3-hydroxybenzyl)amino)isoindoline-1,3-dione] the Kd [2] was 11 ± 2 µM and the IC50 [1, 8] was 82 ± 16 µM.

For `O=C1NC(=O)c2c(NCCCc3cc(Cl)ccc3O)cccc21` [KM-5-54], the Kd [2] was 0.22 ± 0.04 µM, the “fold increase of binding affinity relative to JAG-5-6” value ([2]; relative to JAG-5-6) was 2 fold and the “aqueous solubility (in words)” value [4] was “poor water solubility”.

With `O=C1NC(=O)c2c(NCCCc3cc(O)cc(O)c3)cccc21` [KM-5-57] the Kd [2] was 2.5 ± 0.4 µM, the “fold increase of Kd relative to 16” value ([2]; relative to 16) was ~1.7 fold and the IC50 [1, 8] was > 200 µM.

For `O=C(O)c1cn(C2CC2)c2cc(N3CCNCC3)c(F)cc2c1=O` [ciprofloxacin], the MIC [5] is given as 0.25 μg/mL and 0.75 μM.

With `NC[C@H]1O[C@H](O[C@H]2[C@H](O)[C@@H](O[C@H]3O[C@H](CO)[C@@H](O)[C@H](N)[C@H]3O)[C@H](N)C[C@@H]2N)[C@H](N)C[C@@H]1O` [tobramycin, reference compound] the “% cell survival, CFU/mL(after treatment)/CFU/mL(pre-treatment)” value (“% cell survival” for short) ([3]; antibiotic at 25× the MIC) was ~70%, the “% cell survival” value ([3]; antibiotic at 50× the MIC) was ~70% and the “tolerance or susceptibility of pellicle biofilms (CLSM)” value [6] was “tolerant”. The “% survival (biomass remaining viable, COMSTAT)” value [7] was ~70% and the MIC [5] was 0.5 μg/mL and 1.07 μM.

For colistin, the “% cell survival” value ([3]; antibiotic at 25× the MIC) was ~10%, the “% cell survival” value ([3]; antibiotic at 50× the MIC) was ~1% and the “tolerance or susceptibility of pellicle biofilms (CLSM)” value [6] was “susceptible”. The “fluorescence signal from viable cells expressing EYFP” value ([6]; colistin at 50× the MIC) was “undetectable”, the “% survival (biomass remaining viable, COMSTAT)” value [7] was ~20% and the MIC [5] was 1 μg/mL and 0.79 μM.
